Results taken from patent publication US4795814A, “Process for preparing novel dihydropyridine derivatives” (Otsuka Pharmaceutical Co., Ltd., priority 1984, dated 1989).
Read-outs that look alike come from different tables or passages of the source.

What was measured:
[1] = molecular target: T1, Calmodulin-dependent cyclic-AMP phosphodiesterase (EC 3.1.4.17) (Bos taurus, UniProt P14100); assay: Pharmacological Test-2 (2): Cyclic-AMP phosphodiesterase inhibitory activity (EGTA in place of CaCl2); assay type: biochemical, bovine
T1 construct: An enzyme substance isolated from the heart of bovine and purified partially; from tissue; host or cells: bovine heart
Text: (§1) (2) Calmodulin-dependent cyclic-AMP phosphodiesterase (EC 3.1.4.17): An enzyme substance isolated from the heart of bovine and purified partially by a method of modified version of the disclosure in H. C. Ho, T. S. Teo, et al.: "Biochim. Biophys. Acta", 429, 461 (1976).
(§2) (3) 5'-Nucleotidase (EC 3.1.3.5): Grade IV substance (isolated from Crotalus adamanteus venom) manufactured by Sigma & Co.
(§3) (4) Others: Remainder of the reagents used in the test were those of reagent grade chemicals manufactured by Wako Pure-Chemical Industries, Ltd.
(§4) Calmodulin inhibitory activity of each of the test compounds was measured by a method of modified version of the disclosure in T. S. Teo and T. H. Wang: "J. Bio. Chem.", 248, 588 (1973).
(§5) (3) 5'-Nucleotidase: One unit thereof hydrolyzes 1.0 micromole of inorganic phosphorus from adnosine 5'-monophosphate per minute at pH 9.0 at 37° C.
(§6) 40 mM of Imidazol, 20 mM of MgCl2, 20 mM of CaCl2, 0.008 […] of cyclic-AMP phosphodiesterase, 1.0 unit of calmodulin, 0.2 unit of 5'-nucleotidase and 1.0 ml of 10 mM-tris(hydroxymethyl)aminomethane/HCl buffer solution (pH 7.0) containing 0.5 mM of cyclic-AMP were mixed together, and reacted at 30° C. for 30 minutes. Each of the test compounds were dissolved in methanol or N,N-dimethylformamide as the solvent, provided that the quanitty of the solvent was not exceed 2% of the total amount of the mixture. After the reaction was completed, the reaction mixture was ice-cooled, and 0.5 ml each of aqueous solutions of 16.5%-trichloroacetic acid, 1%-thiourea, 3%-ammonium ferrous sulfate were respectively added to the reaction mixture. Further, 0.15 ml of 4.4%-ammonium molibdate solution was added to the mixture and the whole of the mixture was stirred, and was centrifuged at 3,000 r.p.m. for 10 minutes. Then, the centrifuged mixture was allowed to stand at a room temperature for 20 minutes. The OD660 nm (optical density at 660 nm) was measured.
(2) Cyclic-AMP phosphodiesterase inhibitory activity:
The reaction was conducted by a method similar to that described in (1) as mentioned above, except that 1 mM of EGTA [ethylene glycol-bis(β-aminoethyl ether)-N,N-tetraacetic acid] was used in place of 20 mM of CaCl2. The reaction was conducted for 3 hours.

[2] = molecular target: T2, Calmodulin-cyclic-AMP phosphodiesterase (Bos taurus, UniProt P14100+P62157); assay: Pharmacological Test-2 (1): Calmodulin-cyclic-AMP phosphodiesterase inhibitory activity (with calmodulin, CaCl2); assay type: biochemical, bovine; settings: in the presence of calmodulin, CaCl2, pH 7.0, 30° C., 30 minutes
T2 construct: An enzyme substance isolated from the heart of bovine and purified partially; which was isolated from the brain of bovine, and purified so as to be considered as a single substance; from tissue; host or cells: bovine heart (phosphodiesterase); the calmodulin is a bovine brain product of Amano & Co
Text: (1) Calmodulin: A calmodulin product manufactured by Amano & Co., which was isolated from the brain of bovine, and purified so as to be considered as a single substance with respect to SDS-page (polyacrylamide gel electrophoresis) method.
as §1, §2, §3, §4
(2) Calmodulin: One unit thereof stimulates 0.015 activated unit of cyclic-AMP phosphodiesterase to 50% of the maximum activity of the enzyme.
as §5
(3) Reactions in the tests (1) Calmodulin-cyclic-AMP phosphodiesterase inhibitory activity:
as §6

[3] = tested on: SHR-rats (spontaneously hypertensive rats); assay: Pharmacological Test-1: vasodilative effect, systolic blood pressure of SHR-rats by tail cuff method after oral administration; assay type: in vivo; settings: 30 mg/kg p.o.
Experimental: Vasodilative effects of the dihydropyridine derivatives of the present invention were determined by measuring the systolic blood pressures of test animals before and after the administration of test compound.
Systolic blood pressures and heart beat of SHR-rats (spontaneously hypertensive rats) were determined by a "tail cuff method". Thus the test animal was placed in a thermostat chamber (Type: FR-12RS, manufactured by Isuze & Co.) and was warmed at 40° C. for 15 minutes so as to vasodilate the tail arteria, the systolic blood pressures were measured by an electro sphygmomanometer (Type: PE-300, manufactured by Narco-Biosystems, Inc.) and recorded by an ink-writing recorder (Type: RECTIHORIZ 8s, manufactured by San-Ei Instrument & Co.). The experiments were conducted under non-anesthetized and semi-confinement conditions. The test compound was orally administered forcedly by using a sonde for oral administration. The test compound was suspended in 0.15%-gum arabic powder aqueous solution so as to make the quantity of the test compound to 2.5 ml/kg. The test animal was not fasted, and the systolic blood pressures (mm-Hg) were measured before the administration (hereinafter referred to as "PRE") and after the administration (8, 24, 30, 48, 54 and 72 hours after the administration) of the test compound. The data of systolic blood pressure measured before the administration are shown in absolute value of mmHg, and the data measured after the administration are shown in the differences from the absolute values.

[4] = 1 mM EGTA in place of CaCl2, 3 hours, read-out: Cyclic-AMP phosphodiesterase IC50 (converted)

T1 sequence (P14100 1-514 isoform P14100-2): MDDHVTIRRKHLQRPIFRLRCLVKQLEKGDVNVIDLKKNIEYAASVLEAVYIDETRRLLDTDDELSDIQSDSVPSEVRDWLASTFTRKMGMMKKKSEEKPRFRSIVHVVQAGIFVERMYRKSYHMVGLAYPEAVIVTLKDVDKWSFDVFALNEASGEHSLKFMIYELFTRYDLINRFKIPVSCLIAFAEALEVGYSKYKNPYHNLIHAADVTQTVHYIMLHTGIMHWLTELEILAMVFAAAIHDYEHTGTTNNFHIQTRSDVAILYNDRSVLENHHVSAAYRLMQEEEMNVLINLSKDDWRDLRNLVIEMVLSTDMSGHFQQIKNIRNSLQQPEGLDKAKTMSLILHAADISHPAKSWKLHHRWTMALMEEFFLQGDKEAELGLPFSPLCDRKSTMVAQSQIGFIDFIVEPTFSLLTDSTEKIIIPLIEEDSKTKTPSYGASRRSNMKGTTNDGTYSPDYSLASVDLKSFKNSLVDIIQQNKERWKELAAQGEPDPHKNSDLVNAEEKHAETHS

Compound	IC50 [1, 4]	other results
COC(=O)C1=C(C)NC(C)=C(C(=O)OC/C=C/c2ccc(OC(C)=O)cc2)C1c1cccc([N+](=O)[O-])c1 (stereo not drawn) [Example 14]	98.7 µM	
COC(=O)C1=C(C)NC(C)=C(C(=O)OC/C=C/c2ccc(O)cc2)C1c1cccc([N+](=O)[O-])c1 (stereo not drawn) [Test Compound 1, Methyl 3-(4-hydroxyphenyl)-2(E)-propenyl 1,4-dihydro-2,6-dimethyl-4-(3-nitrophenyl)pyridine-3,5-dicarboxylate]	129 µM	IC50 [2]: 8.83 µM
COC(=O)C1=C(C)NC(C)=C(C(=O)OC/C=C/c2ccccc2)C1c1cccc([N+](=O)[O-])c1 (stereo not drawn) [Test Compound 2, Methyl 3-phenyl-2(E)-propenyl 1,4-dihydro-2,6-dimethyl-4-(3-nitrophenyl)pyridine-3,5-dicarboxylate]	> 223 µM	
COC(=O)C1=C(C)NC(C)=C(C(=O)OC/C=C/C=C/c2ccc(O)cc2)C1c1cccc([N+](=O)[O-])c1 (stereo not drawn) [Test Compound 3, Methyl 5-(4-hydroxyphenyl)-2(E),4(E)-pentadienyl 1,4-dihydro-2,6-dimethyl-4-(3-nitrophenyl)-pyridine-3,5-dicarboxylate]	> 204 µM	
COC(=O)C1=C(C)NC(C)=C(C(=O)OC/C=C/c2ccc(O)c(OC)c2)C1c1cccc([N+](=O)[O-])c1 (stereo not drawn) [Test Compound 7, Methyl 3-(3-methoxy-4-hydroxyphenyl)-2(E)-propenyl 1,4-dihydro-2,6-dimethyl-4-(3-nitrophenyl)pyridine-3,5-dicarboxylate]	174 µM	
COC(=O)C1=C(C)NC(C)=C(C(=O)OC/C=C/c2ccc(OC)cc2)C1c1cccc([N+](=O)[O-])c1 (stereo not drawn) [Test Compound 8]	> 209 µM	
COC(=O)C1=C(C)NC(C)=C(C(=O)OC/C=C/c2ccc(O)c(Cl)c2)C1c1cccc([N+](=O)[O-])c1 (stereo not drawn) [Test Compound 9, Methyl 3-(3-chloro-4-hydroxyphenyl)-2(E)-propenyl 1,4-dihydro-2,6-dimetyyl-4-(3-nitrophenyl)pyridine-3,5-dicarboxylate]	> 200 µM	
COC(=O)C1=C(C)NC(C)=C(C(=O)OCC#Cc2ccc(O)cc2)C1c1cccc([N+](=O)[O-])c1 (stereo not drawn) [Test Compound 10, Methyl 3-(4-hydroxyphenyl)-2-propynyl 1,4-dihydro-2,6-dimetyyl-4-(3-nitrophenyl)-pyridine-3,5-dicarboxylate]	28.1 µM	IC50 [2]: 1.69 µM
COC(=O)C1=C(C)NC(C)=C(C(=O)OC/C=C/c2ccccc2O)C1c1cccc([N+](=O)[O-])c1 (stereo not drawn) [Test Compound 11, Methyl 3-(2-hydroxyphenyl)-2(E)-propenyl 1,4-dihydro-2,6-dimethyl-4-(3-nitrophenyl)-pyridine-3,5-dicarboxylate]	26.9 µM	
COC(=O)C1=C(C)NC(C)=C(C(=O)OC/C=C/c2ccc(O)cc2)C1c1ccccc1C(F)(F)F (stereo not drawn) [Test Compound 12]	> 205 µM	
COC(=O)C1=C(C)NC(C)=C(C(=O)OCC/C=C/c2ccc(SC)cc2)C1c1cccc([N+](=O)[O-])c1 (stereo not drawn) [Test Compound 13, Methyl 4-(4-methylthiophenyl)-3(E)-butenyl 1,4-dihydro-2,6-dimethyl-4-(3-nitrophenyl)-pyridine-3,5-dicarboxylate]	0.452 µM	IC50 [2]: 0.122 µM
COC(=O)C1=C(C)NC(C)=C(C(=O)OC/C=C/c2ccc(O)cc2)C1c1ccccc1 (stereo not drawn) [Test Compound 15, Methyl 3-(4-hydroxyphenyl)-2(E)-propenyl 1,4-dihydro-2,6-dimethyl-4-phenylpyridine-3,5-dicarboxylate]	76.3 µM	
COC(=O)C1=C(C)NC(C)=C(C(=O)OC/C=C/c2ccc(O)cc2)C1c1ccccc1C (stereo not drawn) [Test Compound 16, Methyl 3-(4-hydroxyphenyl)-2(E)-propenyl 1,4-dihydro-2,6-dimethyl-4-(2-methylphenyl)-pyridine-3,5-dicarboxylate]	134 µM	
COC(=O)C1=C(C)NC(C)=C(C(=O)OC/C=C/c2cccc(O)c2)C1c1ccccc1[N+](=O)[O-] (stereo not drawn) [Test Compound 17, Methyl 3-(3-hydroxyphenyl)-2(E)-propenyl 1,4-dihydro-2,6-dimethyl-4-(2-nitrophenyl)-pyridine-3,5-dicarboxylate]	53 µM	IC50 [2]: 1.94 µM
COC(=O)C1=C(C)NC(C)=C(C(=O)OCCN(C)Cc2ccccc2)C1c1cccc([N+](=O)[O-])c1 (stereo not drawn) [Test Compound 18, Methyl 2-(N--methyl-N--benzylamino)ethyl 1,4-dihydro-2,6-dimetyyl-4-(3-nitrophenyl)pyridine-3,5-dicarboxylate, reference compound]		IC50 [1]: 27.1 µM
methyl 4-[(1-ethoxy)ethoxy]cinnamyl 1,4-dihydro-2,6-dimethyl-4-(3-nitrophenyl)pyridine-3,5-dicarboxylate [Example 1]		Blood pressure after the administration, difference from the PRE value ([3]; 24 hours): -41.0 mm-Hg; Blood pressure after the administration, difference from the PRE value ([3]; 30 hours): -52.0 mm-Hg; Blood pressure after the administration, difference from the PRE value ([3]; 48 hours): -26.5 mm-Hg; Blood pressure after the administration, difference from the PRE value ([3]; 54 hours): -19.8 mm-Hg; Blood pressure after the administration, difference from the PRE value ([3]; 72 hours): -12.5 mm-Hg
